Reference: US9265706B2, “Lichesterinic acid and the derivatives of same as pigmentation inhibitors” (Centre National de la Recherche Scientifique—CNRS, priority 2012, dated 2016)

Tested on: B16 cells
Assay: Melanin content of murine B16 cells by absorbance at 405 nm, related to protein, relative to DMSO control
Assay type: cell-based
Conditions: for depigmenting activity compared with the positive control hydroquinone: FIG. 2, C9LA+ and C5LA+ given by way of indication
Protocol: The cells are seeded in a 10 cm Petri dish at a density of 7×10^5 per dish and are incubated for 96 hours, with a defined concentration of lichen-derived molecule, which has been purified and solubilized in DMSO. After treatment, the cells are recovered by treatment with trypsin and washed twice with PBS. The number of cells recovered is estimated by counting using a hemocytometer. One and the same fraction is used to determine the melanin content and the protein concentration. The melanin content is determined by the absorbance at 405 nm (VersaMax Microplate Reader, Molecular Devices, USA) of the cell solution after solubilization of the melanin with 1M sodium hydroxide, for 15 min at 80° C. The protein concentration is determined according to the protocol of the “DC Protein Assay” kit developed by Bio-Rad laboratories, USA. For each sample treated, the melanin content is related to the amount of protein and expressed as a percentage relative to the control situation (DMSO solution alone). Each measurement is carried out in triplicate and each experiment is carried out independently a minimum of 3 times (except for the C9LA+ and C5LA+ derivatives given by way of indication).
FIGS. 1 and 2 bring together the results. These figures show the melanin content of the B16 cells treated for 96 h in the presence of a given molecule (FIG. 2), or of a (+)-lichesterinic acid ((+)LA)/(+)-protolichesterinic acid ((+)PLA)/(+)-roccellaric acid ((+)RA) mixture in a 60/25/15 weight ratio (FIG. 1).
Along the x-axis are the molecules tested with their concentrations expressed in μM.
Along the y-axis, the melanin content is expressed as a percentage relative to the control (DMSO alone=concentration of 0.1%).

[1] = 96 h incubation, concentrations of 0.5 to 2 μM, relative to control, FIG. 2

Compound: CCCCCCCCCCCCC[C@H]1OC(=O)C(C)=C1C(=O)O [(+)-lichesterinic acid]
- depigmenting activity compared with the positive control hydroquinone (96 h incubation): greater depigmenting activity

Compound: CCCCC[C@H]1OC(=O)C(C)=C1C(=O)O [C5LA+]
- depigmenting activity compared with the positive control hydroquinone (96 h incubation): comparable depigmenting activity

Compound: CCCCCCCCC[C@H]1OC(=O)C(C)=C1C(=O)O [C9LA+, (+)-3-methyl-5-nonylparaconic acid]
- depigmenting activity compared with the positive control hydroquinone (96 h incubation): greater depigmenting activity

Compound: CCCCCCCCCCCCC[C@@H]1OC(=O)C(C)=C1C(=O)O [LA−, (−)-lichesterinic acid]
- stimulation of melanin production [1]: +10% to +30%

Compound: C=C1C(=O)O[C@H](CCCCCCCCCCCCC)[C@H]1C(=O)O [PLA+, (+)-protolichesterinic acid]
- decrease in the melanin level (same conditions, 0.25 μM, individually isolated product, results not given in figures): about −20%

Compound: Oc1ccc(O)cc1 [hydroquinone]
- decrease in the melanin level (depigmenting positive control) (96 h incubation, under the same conditions, concentration not given, FIG. 2): −20%

Compound: CCCCCCCCCCCCC[C@H]1OC(=O)[C@@H](C)[C@@H]1C(=O)O [roccellaric acid, (+)-roccellaric acid]
- decrease in the melanin level (same conditions, 1 μM, individually isolated product, results not given in figures): not significant

Compound: (+)-protolichesterinic acid [PLA+]
- decrease in the melanin level [1]: 10% to 20%
